# Measurements as given in BindingDB's records for patent US11185100 (MARS, INCORPORATED, 2021).
# Assays:
# [1] = target: T1, G-protein coupled receptors family 3 profile domain-containing protein (Felis catus, UniProt A0ABI7Z2I4); experiment: Activation of T1R1/T1R3 Receptor by Nucleotide Derivatives
# Text: HEK293 cells that stably express T1R3 and inducibly express T1R1 were exposed to nucleotide derivatives alone to activate the umami receptor. Activation of the T1R1/T1R3 receptor was detected by a change in intracellular calcium levels using a calcium sensitive fluorescent dye. Cells that express T1R3 but not T1R1 were used as a control. A FLIPR Tetra or a FlexStation 3 was used for data capture.
# [2] = target: T1, G-protein coupled receptors family 3 profile domain-containing protein; experiment: Activation of T1R1/T1R3 Receptor by Nucleotide Derivatives (alanine)
# Procedure: The concentration of alanine is 20 mM.
# Target sequence in this assay (A0ABI7Z2I4 1-770): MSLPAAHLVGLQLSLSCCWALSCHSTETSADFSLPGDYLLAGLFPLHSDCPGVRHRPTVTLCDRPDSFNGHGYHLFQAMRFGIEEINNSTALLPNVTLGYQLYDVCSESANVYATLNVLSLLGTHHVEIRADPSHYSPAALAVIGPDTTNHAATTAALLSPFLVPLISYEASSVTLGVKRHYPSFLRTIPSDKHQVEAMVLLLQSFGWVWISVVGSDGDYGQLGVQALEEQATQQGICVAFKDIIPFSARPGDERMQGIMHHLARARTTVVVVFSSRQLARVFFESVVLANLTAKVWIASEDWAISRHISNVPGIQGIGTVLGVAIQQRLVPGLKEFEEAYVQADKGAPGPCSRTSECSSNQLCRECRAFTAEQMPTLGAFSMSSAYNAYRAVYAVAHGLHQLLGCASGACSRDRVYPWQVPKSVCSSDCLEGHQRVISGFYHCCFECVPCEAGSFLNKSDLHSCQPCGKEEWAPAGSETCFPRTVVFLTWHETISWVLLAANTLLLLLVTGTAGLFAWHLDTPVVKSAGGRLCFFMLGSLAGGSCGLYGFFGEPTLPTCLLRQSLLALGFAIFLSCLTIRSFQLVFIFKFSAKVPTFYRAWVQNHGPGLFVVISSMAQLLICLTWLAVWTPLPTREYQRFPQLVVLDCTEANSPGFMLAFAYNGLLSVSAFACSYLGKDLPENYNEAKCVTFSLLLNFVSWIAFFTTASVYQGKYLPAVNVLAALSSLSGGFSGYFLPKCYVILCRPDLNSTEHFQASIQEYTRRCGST
SMILES,EC50 [1] [µM],EC50 [2] [µM]
"Nc1ncnc2c1ncn2[C@@H]1O[C@H](COP(=O)(O)O)[C@@H](OP(=O)(O)O)[C@H]1O [US11185100, TABLE 7.1]",> 30,–
"CC1(O)[C@](C)(n2cnc3c(N)ncnc32)O[C@](C)(COP(O)(O)=S)[C@]1(C)O (stereo partly drawn) [US11185100, TABLE 6.6]",–,60
"CC1(O)[C@@](C)(COP(O)(O)=S)O[C@@](C)(n2cnc3c(N)ncnc32)[C@@]1(C)O (stereo partly drawn) [US11185100, TABLE 7.9]",–,60
